This is an account of results in patent US11584741B2, “Crystalline forms of 4-(5-(4,7-dimethylbenzofuran-2-yl)-1,2,4-oxadiazol-3-yl)benzoic acid and processes for their preparation” (King's College London, priority 2016, dated 2023).

One series concerns cerebellar neurons. Nature of the series: Neurite outgrowth assay, cerebellar neurons in the presence of myelin / MAG. It is filed as cell-based, rat. To be noted: for Effect on RARβ agonist (CD2019) mediated neurite outgrowth: cerebellar neurons cultured with CD2019 plus inhibitor; for Effect on RARβ agonist (CD2019) mediated neurite outgrowth in the presence of MAG: cerebellar neurons. The protocol:
Cerebellar neurons isolated from post-natal day 3 rat pups were cultured over monolayers of parental 3T3 cells in control media, or media supplemented with a recombinant MAG-Fc chimera (R&D Systems) used at a final concentration of 20 μg/mL MAG-Fc. The monolayers were established for 24 hours prior to addition of the neurons and the co-cultures were maintained for approximately 21 hours. Following careful fixation with 4% paraformaldehyde, the neurons were immuno-stained with a GAP-43 antibody (from Graham Wilkin, Imperial College), dilution of 1:500, and the mean length of the longest neurite per cell was measured for approximately 120-150 neurons as previously described (see, e.g., Williams et al., 2005). DRG and cortical explants were obtained from adult rats, they were cultured in cellogen as previously described (see, e.g., Corcoran and Maden, 1999). Three explants per treatment were used. Neurite outgrowth was assessed 3 days later by immunohistochemistry with NF200 (Sigma, dilution of 1:200). The average lengths of the neurites were measured using image pro plus software. Media consisted of DMEM-F12 (Invitrogen) containing N2 (Invitrogen) supplemented with glucose (33 mM) and glutamine (2 mM).

Series [1] in a line: Dynamic vapour sorption (DVS) hygroscopicity. It is filed as physicochemical. To be noted: from DVS, 0% to 95% RH. The protocol: The DVS studies were performed using a Surface Measurement Systems Ltd. DVS-1 No Video (Equipment #2126).
The sample was weighed in a glass pan, typically 20-30 mg, and equilibrated at 0% RH. After the material had dried, the relative humidity (RH) was increased with 10% per step for 1 hour per increment, ending at 95% RH.
The software used for data collection was DVSWn v3.01 No Video. Data analysis was performed using DVS Standard Analysis Suite v6.3.0 (Standard).
To determine the hygroscopicity of Form 1, a DVS plot was measured at 25° C. for a double sorption-desorption cycle. The total mass uptake was 8.7% w/w between 0% and 95% RH, which characterised Form 1 as a hygroscopic form. The uptake was reversible and reproducible.
To determine the hygroscopicity of Form 4, a DVS plot was measured at 25° C. for a double sorption-desorption cycle. The total mass uptake was 0.1% between 0% and 95% RH, which characterises Form 4 as a non-hygroscopic form.

A short description of series [2]: Stability studies on storage (appearance, drug content, water content, drug-related impurities). It is filed as physicochemical. The protocol:
Stability studies were performed as follows. Samples were packaged in double low density polyethylene bags, sealed with plastic ties, and placed in high-density polyethylene (HDPE) drums.
The samples were tested periodically for visual appearance, drug content (by HPLC), water content (by Karl Fischer titration), and drug-related impurities (by HPLC).
Drug content, corrected to a water and solvent free basis, is calculated from the following equation: Content (%)=100−(water+solvents+residue on ignition+related impurities).
Drug-related impurities were determined using a reverse-phase gradient HPLC method with UV detection at 254 nm, using a 150 mm×4.6 mm, 3 μm Waters Atlantis T3 column, with the following parameters: […]

Where [3] appears, read: after 24 months at 25° C./60% RH and 6 months at 40° C./75% RH.

Entries after “also recorded” stand apart in the source; their conditions may differ.

In the case of `O=c1cc(N2CCOCC2)oc2c(-c3ccccc3)cccc12` [LY295002], in the series with cerebellar neurons, the “Effect on RARβ agonist (CD2019) mediated neurite outgrowth” value was “severely impeded” and the “Effect on RARβ agonist (CD2019) mediated neurite outgrowth in the presence of MAG” value was “prevents”.
On to `Cc1ccc(C)c2oc(-c3nc(-c4ccc(C(=O)O)cc4)no3)cc12` [Form 4, 4-(5-(4,7-dimethylbenzofuran-2-yl)-1,2,4-oxadiazol-3-yl)benzoic acid], for which the Hygroscopicity characterisation entry in series [1] is on record as “low hygroscopicity; also recorded: non-hygroscopic”. Moreover, the “Storage time shown to be stable” value in series [2] (25° C./60% RH) was “at least 24 months”; in series [2] (40° C./75% RH), not below 6 months. Further, the “Drug Content” value is on record as 98.7 % w/w in series [2] (25° C./60% RH, 3 months); 100.2 % w/w in series [2] (25° C./60% RH, 6 months); 99.2 % w/w in series [2] (25° C./60% RH, 9 months); 100.4 % w/w in series [2] (25° C./60% RH, 12 months); 101.1 % w/w in series [2] (25° C./60% RH, 18 months); 101.5 % w/w in series [2] (25° C./60% RH, 24 months). For the same compound, the “Drug Content” value turned out to be 98.3 % w/w in series [2] (40° C./75% RH, 3 months); 99.8 % w/w in series [2] (40° C./75% RH, 6 months); 100.1 % w/w in series [2] (Initial, 0 months). For the same compound, the “Drug-Related Impurities” value in series [2] (25° C./60% RH, 3 months) is recorded as 0.06 % area; in series [2] (25° C./60% RH, 6 months), 0.05 % area; in series [2] (25° C./60% RH, 9 months), 0.03 % area; in series [2] (25° C./60% RH, 12 months), 0.03 % area; in series [2] (25° C./60% RH, 18 months) it was 0.07 % area; in series [2] (25° C./60% RH, 24 months), less than 0.03 % area. Also, the “Drug-Related Impurities” value in series [2] (40° C./75% RH, 3 months) is 0.10 % area; in series [2] (40° C./75% RH, 6 months), 0.05 % area; in series [2] (Initial, 0 months), 0.03 % area. Further, the “Visual Appearance” value in series [2] (25° C./60% RH, 3 months) is recorded as “As initial”; in series [2] (25° C./60% RH, 6 months), “As initial”; in series [2] (25° C./60% RH, 9 months) it was “As initial”; in series [2] (25° C./60% RH, 12 months), “Off-white”; in series [2] (25° C./60% RH, 18 months), “Off-white”; in series [2] (25° C./60% RH, 24 months), “As initial”. For the same compound, the “Visual Appearance” value in series [2] (40° C./75% RH, 3 months) is “As initial”; in series [2] (40° C./75% RH, 6 months), “As initial”; in series [2] (Initial, 0 months) it was “White”. The Water content was less than 0.1 % w/w in series [2] (25° C./60% RH, 3 months); less than 0.1 % w/w in series [2] (25° C./60% RH, 6 months); less than 0.1 % w/w in series [2] (25° C./60% RH, 9 months); less than 0.1 % w/w in series [2] (25° C./60% RH, 12 months); less than 0.1 % w/w in series [2] (25° C./60% RH, 18 months); less than 0.1 % w/w in series [2] (25° C./60% RH, 24 months). Besides, the Water content in series [2] (40° C./75% RH, 3 months) is on record as less than 0.1 % w/w; in series [2] (40° C./75% RH, 6 months), less than 0.1 % w/w; in series [2] (Initial, 0 months), less than 0.1 % w/w. For the same compound, the “Change of appearance on storage” value in series [2] (setting [3]) was “essentially unchanged”. The “Change of drug content on storage” value in series [2] (setting [3]) is reported as “essentially unchanged”. In series [2] (setting [3]), the “Change of drug-related impurity levels on storage” value was “essentially unchanged”. Also, in series [2] (setting [3]), the “Change of water content on storage” value is given as “essentially unchanged”. For the same compound, the “Stability at ambient conditions (in words)” value in series [2] (ambient conditions) is listed as “stable for many months”.
Take `CCCCCCOC(=O)[C@]1(O)C[C@@H]2O[C@@]1(C)n1c3ccccc3c3c4c(c5c6ccccc6n2c5c31)C(=O)NC4` [KT5720]: in the series with cerebellar neurons, the “Effect on RARβ agonist (CD2019) mediated neurite outgrowth” value was “little or no effect” and the “Effect on RARβ agonist (CD2019) mediated neurite outgrowth in the presence of MAG” value is recorded as “does not affect”.
For `Cc1ccc(C)c2oc(-c3nc(-c4ccc(C(=O)O)cc4)no3)cc12` [Form 1, 4-(5-(4,7-dimethylbenzofuran-2-yl)-1,2,4-oxadiazol-3-yl)benzoic acid], the Hygroscopicity characterisation entry in series [1] is recorded as “hygroscopic”.
